Experimental data: the kinase profiling compilation of Christmann-Franck et al. (2016)

Columns and labels:
Test in all cases: KINOMEscan competition binding
Settings in all cases: compound 10.0 µM
DYRK1B (human) = DYRK1B (human) (UniProt Q9Y463)
[1] = molecular target: JAK3 JH1 catalytic (human) (UniProt P52333)
CDK19 (human) = CDK19 (human) (UniProt Q9BWU1)
CAMKK1 (human) = CAMKK1 (human) (UniProt Q8N5S9)
WEE2 (human) = WEE2 (human) (UniProt P0C1S8)
CAMKK2 (human) = CAMKK2 (human) (UniProt Q96RR4)
PAK6 (human) = PAK6 (human) (UniProt Q9NQU5)
PKMYT1 (human) = PKMYT1 (human) (UniProt Q99640)
MINK1 (human) = MINK1 (human) (UniProt Q8N4C8)
STK33 (human) = STK33 (human) (UniProt Q9BYT3)
MAPK9 (human) = MAPK9 (human) (UniProt P45984)
MARK2 (human) = MARK2 (human) (UniProt Q7KZI7)
SLK (human) = SLK (human) (UniProt Q9H2G2)
CSNK2A2 (human) = CSNK2A2 (human) (UniProt P19784)
MAP3K6 (human) = MAP3K6 (human) (UniProt O95382)
DAPK3 (human) = DAPK3 (human) (UniProt O43293)
EPHA6 (human) = EPHA6 (human) (UniProt Q9UF33)
[2] = test system: PIK3CA (human), P42336 [M1043I]
DCLK1 (human) = DCLK1 (human) (UniProt O15075)
TESK1 (human) = TESK1 (human) (UniProt Q15569)
AURKB (human) = AURKB (human) (UniProt Q96GD4)
CDK11B (human) = CDK11B (human) (UniProt P21127)
PRKD2 (human) = PRKD2 (human) (UniProt Q9BZL6)
IRAK4 (human) = IRAK4 (human) (UniProt Q9NWZ3)
PRKAA1 (human) = PRKAA1 (human) (UniProt Q13131)
MAP3K12 (human) = MAP3K12 (human) (UniProt Q12852)
CDK13 (human) = CDK13 (human) (UniProt Q14004)
PIM3 (human) = PIM3 (human) (UniProt Q86V86)
INSR (human) = INSR (human) (UniProt P06213)
MAP3K7 (human) = MAP3K7 (human) (UniProt O43318)
ROCK2 (human) = ROCK2 (human) (UniProt O75116)
ERBB2 (human) = ERBB2 (human) (UniProt P04626)
MYLK4 (human) = MYLK4 (human) (UniProt Q86YV6)
FGFR3 (human) = FGFR3 (human) (UniProt P22607)
PI4KB (human) = PI4KB (human) (UniProt Q9UBF8)
MAP2K1 (human) = MAP2K1 (human) (UniProt Q02750)
EPHB2 (human) = EPHB2 (human) (UniProt P29323)
MAP2K5 (human) = MAP2K5 (human) (UniProt Q13163)
MET (human) = MET (human) (UniProt P08581)
LIMK1 (human) = LIMK1 (human) (UniProt P53667)

Sequence of PI4KB (human) (Q9UBF8 whole entry, looked up): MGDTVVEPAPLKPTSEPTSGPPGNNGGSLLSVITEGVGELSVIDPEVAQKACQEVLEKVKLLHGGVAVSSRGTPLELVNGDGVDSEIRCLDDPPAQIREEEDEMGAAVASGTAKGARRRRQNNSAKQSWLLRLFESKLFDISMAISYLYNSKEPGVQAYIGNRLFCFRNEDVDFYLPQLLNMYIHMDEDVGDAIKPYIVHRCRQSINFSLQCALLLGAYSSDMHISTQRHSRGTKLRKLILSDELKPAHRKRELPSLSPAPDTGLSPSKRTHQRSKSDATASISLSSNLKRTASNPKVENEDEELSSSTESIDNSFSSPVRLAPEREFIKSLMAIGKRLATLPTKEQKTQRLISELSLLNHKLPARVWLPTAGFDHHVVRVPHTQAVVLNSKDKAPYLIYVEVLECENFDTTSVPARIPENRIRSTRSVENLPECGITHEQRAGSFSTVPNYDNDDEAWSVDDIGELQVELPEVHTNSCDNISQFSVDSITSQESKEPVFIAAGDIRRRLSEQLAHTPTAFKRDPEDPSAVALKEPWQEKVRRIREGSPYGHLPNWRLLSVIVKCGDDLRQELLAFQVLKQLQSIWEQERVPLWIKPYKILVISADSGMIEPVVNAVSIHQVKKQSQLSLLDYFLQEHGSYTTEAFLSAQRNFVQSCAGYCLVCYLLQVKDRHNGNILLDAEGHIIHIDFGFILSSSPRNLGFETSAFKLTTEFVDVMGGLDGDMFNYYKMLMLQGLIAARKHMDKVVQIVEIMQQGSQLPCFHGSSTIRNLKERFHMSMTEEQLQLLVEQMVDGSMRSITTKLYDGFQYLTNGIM
Sequence of STK33 (human) (Q9BYT3 whole entry, looked up): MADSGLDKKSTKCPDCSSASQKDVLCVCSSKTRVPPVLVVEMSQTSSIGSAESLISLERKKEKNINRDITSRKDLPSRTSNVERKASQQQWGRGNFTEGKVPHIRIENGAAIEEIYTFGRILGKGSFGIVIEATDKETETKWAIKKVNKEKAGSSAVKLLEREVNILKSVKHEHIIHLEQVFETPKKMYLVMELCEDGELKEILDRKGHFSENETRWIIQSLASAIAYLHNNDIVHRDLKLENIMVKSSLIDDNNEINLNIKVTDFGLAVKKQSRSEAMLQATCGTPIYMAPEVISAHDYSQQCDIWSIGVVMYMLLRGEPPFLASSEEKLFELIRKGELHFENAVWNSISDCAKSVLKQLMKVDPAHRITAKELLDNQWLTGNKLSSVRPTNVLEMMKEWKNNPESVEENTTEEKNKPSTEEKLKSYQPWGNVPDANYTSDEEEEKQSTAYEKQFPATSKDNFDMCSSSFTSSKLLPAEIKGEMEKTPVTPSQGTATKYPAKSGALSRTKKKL
Sequence of PRKD2 (human) (Q9BZL6 whole entry, looked up): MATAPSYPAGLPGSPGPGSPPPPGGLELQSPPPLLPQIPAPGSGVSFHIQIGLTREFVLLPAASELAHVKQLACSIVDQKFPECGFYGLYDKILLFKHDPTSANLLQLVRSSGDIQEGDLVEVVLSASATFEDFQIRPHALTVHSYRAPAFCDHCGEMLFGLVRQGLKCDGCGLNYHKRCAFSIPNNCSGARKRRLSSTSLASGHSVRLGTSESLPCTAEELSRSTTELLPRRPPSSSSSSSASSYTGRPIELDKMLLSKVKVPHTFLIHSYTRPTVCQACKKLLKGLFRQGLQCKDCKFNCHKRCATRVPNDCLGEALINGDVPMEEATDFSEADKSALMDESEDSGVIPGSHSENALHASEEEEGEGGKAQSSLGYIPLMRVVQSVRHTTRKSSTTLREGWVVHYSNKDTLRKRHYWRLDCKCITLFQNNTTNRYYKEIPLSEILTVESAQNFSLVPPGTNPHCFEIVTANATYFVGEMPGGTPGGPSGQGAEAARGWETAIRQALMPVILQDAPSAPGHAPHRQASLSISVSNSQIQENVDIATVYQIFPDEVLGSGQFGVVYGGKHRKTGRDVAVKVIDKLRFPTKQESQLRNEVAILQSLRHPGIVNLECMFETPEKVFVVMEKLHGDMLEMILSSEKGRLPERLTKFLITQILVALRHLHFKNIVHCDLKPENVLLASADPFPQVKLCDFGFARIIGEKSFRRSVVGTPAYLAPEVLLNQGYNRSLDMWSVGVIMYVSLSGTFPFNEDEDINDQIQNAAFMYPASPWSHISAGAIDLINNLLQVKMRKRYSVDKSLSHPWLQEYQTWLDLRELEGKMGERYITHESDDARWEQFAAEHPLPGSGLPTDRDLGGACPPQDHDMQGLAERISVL
Sequence of ROCK2 (human) (O75116 whole entry, looked up): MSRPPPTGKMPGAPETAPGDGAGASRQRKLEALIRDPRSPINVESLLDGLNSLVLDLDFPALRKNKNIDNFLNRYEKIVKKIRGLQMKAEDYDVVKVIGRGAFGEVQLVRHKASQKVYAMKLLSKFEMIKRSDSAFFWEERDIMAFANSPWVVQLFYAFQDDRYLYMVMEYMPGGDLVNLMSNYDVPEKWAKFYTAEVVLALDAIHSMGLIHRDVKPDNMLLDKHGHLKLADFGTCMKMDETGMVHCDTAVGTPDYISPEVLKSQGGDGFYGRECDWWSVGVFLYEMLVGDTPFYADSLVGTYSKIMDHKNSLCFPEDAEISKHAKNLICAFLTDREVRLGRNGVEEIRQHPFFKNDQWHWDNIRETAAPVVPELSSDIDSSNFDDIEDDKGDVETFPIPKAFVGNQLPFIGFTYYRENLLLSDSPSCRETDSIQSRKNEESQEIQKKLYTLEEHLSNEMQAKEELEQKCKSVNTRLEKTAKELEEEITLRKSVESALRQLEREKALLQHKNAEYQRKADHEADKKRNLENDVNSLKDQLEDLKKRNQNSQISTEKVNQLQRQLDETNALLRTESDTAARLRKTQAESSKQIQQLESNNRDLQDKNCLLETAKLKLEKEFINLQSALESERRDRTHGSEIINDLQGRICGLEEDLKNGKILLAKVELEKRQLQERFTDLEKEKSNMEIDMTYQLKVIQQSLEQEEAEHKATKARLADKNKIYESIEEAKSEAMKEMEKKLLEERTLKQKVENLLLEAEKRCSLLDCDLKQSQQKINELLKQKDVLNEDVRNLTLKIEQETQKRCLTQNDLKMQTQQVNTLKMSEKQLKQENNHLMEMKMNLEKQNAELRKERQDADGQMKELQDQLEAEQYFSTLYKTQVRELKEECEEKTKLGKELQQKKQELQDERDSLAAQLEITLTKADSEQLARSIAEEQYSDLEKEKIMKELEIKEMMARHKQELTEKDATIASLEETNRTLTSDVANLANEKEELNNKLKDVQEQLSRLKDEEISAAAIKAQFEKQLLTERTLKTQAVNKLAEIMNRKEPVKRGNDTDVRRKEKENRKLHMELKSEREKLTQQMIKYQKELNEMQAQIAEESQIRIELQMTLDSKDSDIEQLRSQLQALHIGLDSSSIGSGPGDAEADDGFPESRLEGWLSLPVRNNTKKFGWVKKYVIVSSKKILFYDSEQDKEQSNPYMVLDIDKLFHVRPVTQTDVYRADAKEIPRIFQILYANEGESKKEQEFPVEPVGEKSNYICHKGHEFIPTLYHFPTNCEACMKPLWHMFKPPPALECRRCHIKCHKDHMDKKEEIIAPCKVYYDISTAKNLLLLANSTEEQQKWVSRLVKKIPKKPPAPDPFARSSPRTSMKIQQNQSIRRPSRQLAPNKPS
Sequence of PAK6 (human) (Q9NQU5 whole entry, looked up): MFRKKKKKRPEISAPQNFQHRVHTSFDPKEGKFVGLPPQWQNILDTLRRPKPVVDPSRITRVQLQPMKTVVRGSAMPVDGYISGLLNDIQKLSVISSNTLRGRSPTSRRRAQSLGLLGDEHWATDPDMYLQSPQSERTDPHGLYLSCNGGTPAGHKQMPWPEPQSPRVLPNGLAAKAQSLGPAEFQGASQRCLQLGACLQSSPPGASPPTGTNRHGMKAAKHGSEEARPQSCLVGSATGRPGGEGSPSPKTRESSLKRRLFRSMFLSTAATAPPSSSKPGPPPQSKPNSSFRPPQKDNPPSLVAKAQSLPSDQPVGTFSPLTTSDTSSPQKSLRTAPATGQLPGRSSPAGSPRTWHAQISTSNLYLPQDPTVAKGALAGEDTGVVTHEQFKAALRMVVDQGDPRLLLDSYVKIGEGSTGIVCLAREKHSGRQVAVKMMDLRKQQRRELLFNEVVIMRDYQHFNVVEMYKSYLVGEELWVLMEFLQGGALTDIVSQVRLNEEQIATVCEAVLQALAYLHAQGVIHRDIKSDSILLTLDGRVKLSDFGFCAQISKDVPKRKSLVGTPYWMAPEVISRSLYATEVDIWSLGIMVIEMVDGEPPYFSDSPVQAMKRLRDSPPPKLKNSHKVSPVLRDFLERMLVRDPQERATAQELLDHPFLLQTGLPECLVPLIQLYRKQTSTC
Sequence of AURKB (human) (Q96GD4 whole entry, looked up): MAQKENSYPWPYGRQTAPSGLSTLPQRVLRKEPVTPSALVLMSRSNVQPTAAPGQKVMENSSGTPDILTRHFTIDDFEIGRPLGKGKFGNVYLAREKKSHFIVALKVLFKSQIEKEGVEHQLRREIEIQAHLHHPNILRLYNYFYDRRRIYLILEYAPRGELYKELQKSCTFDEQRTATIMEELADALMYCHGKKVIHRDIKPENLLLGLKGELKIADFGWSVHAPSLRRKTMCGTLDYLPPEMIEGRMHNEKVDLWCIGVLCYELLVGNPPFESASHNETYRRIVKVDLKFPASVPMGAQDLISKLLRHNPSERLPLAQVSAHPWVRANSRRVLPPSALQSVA
Sequence of MAP2K1 (human) (Q02750 whole entry, looked up): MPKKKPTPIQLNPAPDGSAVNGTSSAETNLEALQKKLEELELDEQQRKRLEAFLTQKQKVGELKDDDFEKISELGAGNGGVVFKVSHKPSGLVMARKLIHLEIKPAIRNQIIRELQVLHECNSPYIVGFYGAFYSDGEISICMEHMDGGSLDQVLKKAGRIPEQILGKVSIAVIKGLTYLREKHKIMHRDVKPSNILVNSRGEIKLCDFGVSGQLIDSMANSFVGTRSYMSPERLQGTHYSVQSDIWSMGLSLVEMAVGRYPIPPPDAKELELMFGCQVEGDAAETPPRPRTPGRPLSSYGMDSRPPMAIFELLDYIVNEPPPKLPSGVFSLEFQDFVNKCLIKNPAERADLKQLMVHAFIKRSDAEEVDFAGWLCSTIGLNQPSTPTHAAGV

Compound `C=CC(=O)Nc1ccc(C(=O)c2sc(Nc3ccc(N4CCN(C)CC4)cc3OC)nc2N)cc1` has a kinase still bound, per cent of control (DYRK1B (human)) of 2.6%, a kinase still bound, per cent of control [1] of 100% and a kinase still bound, per cent of control (CDK19 (human)) of 100%. For the same compound, the kinase still bound, per cent of control (CAMKK1 (human)) was 3.3%, the kinase still bound, per cent of control (WEE2 (human)) was 100% and the kinase still bound, per cent of control (CAMKK2 (human)) was 5%. For the same compound, the kinase still bound, per cent of control (PAK6 (human)) was 40%, the kinase still bound, per cent of control (PKMYT1 (human)) was 96% and the kinase still bound, per cent of control (MINK1 (human)) was 3.5%. For the same compound, the kinase still bound, per cent of control (STK33 (human)) was 39%, the kinase still bound, per cent of control (MAPK9 (human)) was 7% and the kinase still bound, per cent of control (MARK2 (human)) was 78%. It also gave a kinase still bound, per cent of control (SLK (human)) of 32%, a kinase still bound, per cent of control (CSNK2A2 (human)) of 37% and a kinase still bound, per cent of control (MAP3K6 (human)) of 84%. For the same compound, the kinase still bound, per cent of control (DAPK3 (human)) was 2.6%, the kinase still bound, per cent of control (EPHA6 (human)) was 88% and the kinase still bound, per cent of control [2] was 100%. It also gave a kinase still bound, per cent of control (DCLK1 (human)) of 5.6%, a kinase still bound, per cent of control (TESK1 (human)) of 100% and a kinase still bound, per cent of control (AURKB (human)) of 62%. It also gave a kinase still bound, per cent of control (CDK11B (human)) of 89%, a kinase still bound, per cent of control (PRKD2 (human)) of 70% and a kinase still bound, per cent of control (IRAK4 (human)) of 92%. For the same compound, the kinase still bound, per cent of control (PRKAA1 (human)) was 100%, the kinase still bound, per cent of control (MAP3K12 (human)) was 79% and the kinase still bound, per cent of control (CDK13 (human)) was 100%. It also gave a kinase still bound, per cent of control (PIM3 (human)) of 87%, a kinase still bound, per cent of control (INSR (human)) of 98% and a kinase still bound, per cent of control (MAP3K7 (human)) of 73%. The kinase still bound, per cent of control (ROCK2 (human)) was 24%, the kinase still bound, per cent of control (ERBB2 (human)) was 77% and the kinase still bound, per cent of control (MYLK4 (human)) was 66%. The kinase still bound, per cent of control (FGFR3 (human)) was 78%, the kinase still bound, per cent of control (PI4KB (human)) was 18% and the kinase still bound, per cent of control (MAP2K1 (human)) was 100%. For the same compound, the kinase still bound, per cent of control (EPHB2 (human)) was 100%, the kinase still bound, per cent of control (MAP2K5 (human)) was 100% and the kinase still bound, per cent of control (MET (human)) was 83%. For the same compound, the kinase still bound, per cent of control (LIMK1 (human)) was 79%.
`N#Cc1cc(-c2ccnc(Nc3ccc(-n4cnc(-c5cccnc5)n4)cc3)n2)cc(N2CCOCC2)c1` showed a kinase still bound, per cent of control (DYRK1B (human)) of 10%, a kinase still bound, per cent of control [1] of 2.2% and a kinase still bound, per cent of control (CDK19 (human)) of 88%. The kinase still bound, per cent of control (CAMKK1 (human)) was 48%, the kinase still bound, per cent of control (WEE2 (human)) was 100% and the kinase still bound, per cent of control (CAMKK2 (human)) was 52%. It also gave a kinase still bound, per cent of control (PAK6 (human)) of 58%, a kinase still bound, per cent of control (PKMYT1 (human)) of 65% and a kinase still bound, per cent of control (MINK1 (human)) of 31%. It also gave a kinase still bound, per cent of control (STK33 (human)) of 88%, a kinase still bound, per cent of control (MAPK9 (human)) of 0.1% and a kinase still bound, per cent of control (MARK2 (human)) of 73%. It also gave a kinase still bound, per cent of control (SLK (human)) of 10%, a kinase still bound, per cent of control (CSNK2A2 (human)) of 11% and a kinase still bound, per cent of control (MAP3K6 (human)) of 88%. It also gave a kinase still bound, per cent of control (DAPK3 (human)) of 73%, a kinase still bound, per cent of control (EPHA6 (human)) of 72% and a kinase still bound, per cent of control [2] of 100%. It also gave a kinase still bound, per cent of control (DCLK1 (human)) of 100%, a kinase still bound, per cent of control (TESK1 (human)) of 54% and a kinase still bound, per cent of control (AURKB (human)) of 57%. It also gave a kinase still bound, per cent of control (CDK11B (human)) of 32%, a kinase still bound, per cent of control (PRKD2 (human)) of 93% and a kinase still bound, per cent of control (IRAK4 (human)) of 100%. For the same compound, the kinase still bound, per cent of control (PRKAA1 (human)) was 84%, the kinase still bound, per cent of control (MAP3K12 (human)) was 63% and the kinase still bound, per cent of control (CDK13 (human)) was 100%. The kinase still bound, per cent of control (PIM3 (human)) was 78%, the kinase still bound, per cent of control (INSR (human)) was 78% and the kinase still bound, per cent of control (MAP3K7 (human)) was 15%. For the same compound, the kinase still bound, per cent of control (ROCK2 (human)) was 25%, the kinase still bound, per cent of control (ERBB2 (human)) was 100% and the kinase still bound, per cent of control (MYLK4 (human)) was 26%. The kinase still bound, per cent of control (FGFR3 (human)) was 74%, the kinase still bound, per cent of control (PI4KB (human)) was 100% and the kinase still bound, per cent of control (MAP2K1 (human)) was 50%. For the same compound, the kinase still bound, per cent of control (EPHB2 (human)) was 89%, the kinase still bound, per cent of control (MAP2K5 (human)) was 8.6% and the kinase still bound, per cent of control (MET (human)) was 24%. The kinase still bound, per cent of control (LIMK1 (human)) was 62%.
